Assay results from patent publication US20260055081A1, “Metal Chelator Compounds, Coordination Complexes, and Methods of Preparation and Use Thereof” (University of Puerto Rico, priority 2022, published 2026).

Key:
Assay type in all cases: cell-based, human
Colon cancer cell lines = test: NCI 60 five-dose screen, colon panel; settings: 48 h
Experimental: (§1) National Cancer Institute Cancer Cell Line (NCI 60) Screen of DefNEtTrp. Details of the methodology for NCI 60 cell line screening are described at http://dtp.nci.nih.gov/branches/btb/ivclsp.html. The cells, grown in supplemented RPMI-1640 medium, are seeded in 96 well plates at an appropriate density and incubated for 24 h. The test compounds are dissolved in DMSO and incubated with cells at a single dose of 10.0 μM for 48 h. The assay is terminated by addition of cold trichloroacetic acid, and the cells are fixed and stained with sulforhodamine B. Bound stain is solubilized, and the absorbance is read on an automated plate reader. […] Using the seven absorbance measurements [time zero, […], control growth, (C), and test growth in the presence of drug at the five concentration levels (Tf)], the percentage growth was calculated at each of the drug concentrations levels as: [(Tf−Ti)/(C−Ti)]×100 for concentrations for which Tf≥Ti and [(Tf−Ti)/Ti]×100 for concentrations for which Tf<Ti. Three-dose response parameters (GI50, TGI, and LC50) were calculated for each of the experimental agents in five dose assay. […] The total growth inhibition (TGI) was calculated from Tf=Ti, which was the drug concentration resulting in total growth inhibition and signified the cytostatic effect. […]

[1] = test system: MRC-5 noncancer lung cell line; test: MRC-5 cell viability (MTT assay); settings: concentration range examined, maximum 100 μM; 72 h
Experimental: MRC-5 cell viability studies. A thawed stock of MRC-5 cells was washed with 1×PBS and resuspended in phenol red DMEM media (supplemented with 10% FBS and 1% penicillin-streptomycin) and then seeded in a 100 mm×20 mm (complete, O.D.×H) petri dish and grown in a 5% (v/v) CO2 humidified atmosphere at 37° C. At least three passages were performed to ensure the integrity of the cells. After this point, cells were collected, thoroughly washed with 1×PBS, and then resuspended in phenol red-free DMEM (supplemented with 10% FBS, 1% penicillin-streptomycin, and 2.4 mM L-glutamine) at a 2.0×10^5 cells/mL concentration. A volume of 50 μL of cells was seeded into 96-well plates. Cells were incubated for 24 h. Stock solutions of DefNEtTrp were prepared fresh in DMF at concentrations of 20,000, 10,000, 5,000, 2,000, 1000, 200, 80, and 40 μM. The solutions were diluted 100-fold in 1×PBS to obtain a second set of stock solutions with 1% DMF(v/v). The MRC-5 cells were treated with 50 μL of DefNEtTrp compound solution from the second set of stock solutions to obtain final concentrations of 100, 50, 25, 10, 5, 1, 0.4, and 0.2 μM with 0.5% DMF (v/v). Control wells were the same type of controls as in the Jurkat cell work. Cells were incubated for 68 h and the MTT assay was performed exactly as described for the Jurkat cells.

red blood cells = test: CO-ADD hemolysis assay; settings: up to a concentration of 50.3 μM; human red blood cells, 1 h at 37° C.
Experimental: CO-ADD hemolysis assay. Dry compounds ranging from 1-2 mg were delivered to the CO-ADD. The compounds were solubilized to a stock concentration of 10 mg/mL in DMSO. Samples were serially diluted 1:2 fold in water to final testing concentrations of […] while keeping the final DMSO concentration to a maximum of 0.32% (v/v). Each sample concentration was prepared in polypropylene 384-well plates (Corning 3657) for hemolysis assays, all in two duplicate plates (n=2). All sample preparation was conducted using liquid handling robots. Human whole blood (Australian Red Cross) was washed three times with three volumes of 0.9% NaCl (w/v) and resuspended in a concentration of […], determined by manual cell count in a Neubauer hemocytometer. Washed cells were added to the compound-containing plates for a final volume of 50 μL. After a 10 min shake on a plate shaker the plates were then incubated for 1 h at 37° C. After incubation, the plates were centrifuged at 1000 g for 10 min to pellet cells and debris, 25 μL of the supernatant was then transferred to reading plates (384 well, polystyrene plated (PS), Corning CLS3680), with hemolysis determined by measuring the supernatant absorbance at […] (OD405) using a Tecan M1000 Pro monochromator plate reader. HC10 and HC50 (concentration at 10% and 50% hemolysis, respectively) were calculated by curve fitting the inhibition values vs. log(concentration) using a sigmoidal dose-response function with variable fitting values for the top, bottom, and slope. The maximal percentage of hemolysis is reported as Dmax. Hemolysis samples are classified by HC10≤32 μg/mL. […] Melittin was used in 8 concentrations in 2-fold serial dilutions with 50 µg/mL being the highest concentration.

CNS cancer cell lines = test: NCI 60 five-dose screen, CNS panel; settings: 48 h
Experimental: as §1

[2] = test system: Prostate cancer cell lines; test: NCI 60 five-dose screen, prostate panel; settings: 48 h
Experimental: as §1

[3] = test system: Ovarian cancer cell lines; test: NCI 60 five-dose screen, ovarian panel; settings: 48 h
Experimental: as §1

Jurkat cells = test: Apoptosis mechanistic cell viability study (Q-VD-OPh); settings: 10 μM Q-VD-OPh pretreatment, 2 μM DefNEtTrp, 72 h
Experimental: Apoptosis mechanistic cell viability study. Jurkat cells were seeded into 96-well plates, as indicated in the MTT assay described above. The cells were treated with 10 μM of the apoptosis inhibitor Q-VD-OPh (Q-V-O). Another group of cells were treated with media alone. After 1 h incubation, half of the cells supplemented with Q-V-O were treated with 2 μM DefNEtTrp or 2 μM cisplatin, as positive control, while the other half was treated with media alone. The final percentage of DMF was maintained at 0.5% (v/v). The MTT assay was performed with these samples (n=6). A student t-test was performed to evaluate the difference in the viability of cells treated with DefNEtTrp or cisplatin and supplemented with and without Q-V-O.

[4] = cell lines in which TGI was observed
[5] = Homo sapiens, read-out: GI50 (calculated average)

Structure (SMILES): Nc1cccnc1/C=N/NC(=S)NCCNC(=O)c1ccc(-n2nc(-c3ccccc3O)nc2-c2ccccc2O)cc1 [DefNEtTrp, deferasirox nitrogen ethyl triapine]
- TGI (calculated average) (Colon cancer cell lines; [4]): 12.22 µM
- GI50 (Colon cancer cell lines; [5]): 0.87 µM
- antiproliferative behavior against MRC-5 [1]: no antiproliferative behavior
- hemolysis (red blood cells): ~5%
- TGI (calculated average) (CNS cancer cell lines; [4]): 12.43 µM
- GI50 (CNS cancer cell lines; [5]): 0.5 µM
- TGI (calculated average) [2, 4]: 18.2 µM
- GI50 [2, 5]: 1.14 µM
- TGI (calculated average) [3, 4]: 9.82 µM
- GI50 [3, 5]: 1.12 µM
- change in viability of cells pretreated with Q-VD-OPh (Jurkat cells): two-fold increase in viability
